The results in this text go back to patent publication US20100150930A1, “MAGE-11 AS A MARKER FOR ENDOMETRIAL RECEPTIVITY TO EMBRYO TRANSPLANTATION AND A MARKER AND THERAPEUTIC TARGET IN CASTRATION-RECURRENT PROSTATE CANCER” (The University of North Carolina at Chapel Hill, priority 2007, published 2010).

Assay [1] deals with MAGE-11 mRNA. The assay is described as follows: MAGE-11 mRNA by real-time PCR in Ishikawa cells. Type of assay: cell-based, human. The following applies: for change in MAGE-11 mRNA levels: 100 Units/ml hCG, 10 nM progesterone, 10 nM DHT or 10 ng/ml EGF. The procedure: (§1) For MAGE-11 and AR mRNA in the human endometrial ECC-1 and Ishikawa cell lines, cells were passed 4 days prior to each experiment into medium without phenol red containing 5% charcoal stripped serum (Atlanta Biologicals, Lawrenceville, Ga.). […] RNA was extracted using RNeasy Plus Mini kit (Qiagen, Valencia, Calif.) and cDNA prepared from 4 μg total RNA as above. β-Glucuronidase (GusB) forward primer 5′-[…]-3′ (SEQ ID NO:4) and reverse primer 5′-[…]-3′ (SEQ ID NO:5) amplify a 65 by region coding for amino acid residues 120-140. The 5′-[…]-3′ (SEQ ID NO:6) GusB probe overlaps the exon 2 and 3 boundary. PCR was carried out in 20 μl reactions containing cDNA from 0.4 μg total RNA, 4 μl LightCycler TaqMan Master mix (Roche, Indianapolis, Ind.) and 0.5 μl 20× TaqMan Mix (Applied Biosystems, Foster City, Calif.) for AR or MAGE-11, or 0.5 μM primer and 0.2 μM probe for GusB. PCR reactions were 1 cycle at 95° C. for 10 min followed by 55 cycles of 95° C. for 15 sec, 60° C. for 25 sec and 72° C. for 1 sec in a Roche Lightcycler. […] Results were averaged from duplicates of 6 or 10 cm dishes of ECC-1 or Ishikawa cell cultures.

The subject of the next assay is Flag-MAGE-11. The conditions noted are these: COS cells, with wild-type AR, 2 and 10 nM DHT, 24 h.
The test system of assay [2] is MAGE-11 mRNA. Description: MAGE-11 mRNA by real-time PCR in ECC-1 cells. The following applies: for change in MAGE-11 mRNA levels: 100 Units/ml hCG, 10 nM progesterone, 10 nM DHT or 10 ng/ml EGF. The assay is classed as cell-based, human. How it is done: as §1
Assay [3] concerns MAGE-11 mRNA. Description: MAGE-11 mRNA by real time RT-PCR in LNCaP cells. The assay is classed as cell-based, human.
The subject of another assay is AR mRNA. Description: AR mRNA by real-time PCR in ECC-1 cells. The assay is classed as cell-based, human. The procedure:
as §1

The test system of assay [4] is PR-B. The assay is described as follows: PR immunoblot in ECC-1 cells. Type of assay: cell-based, human. The following applies: 10 nM E2 for 48 h.
Experimental: (§2) Immunoblot analysis. MAGE-11, AR, PR and ERα protein levels in ECC-1 (2×10^6/6 cm dish) and Ishikawa cells (4×10^6/10 cm dish) were determined by immunoblot. Cells were plated in medium without phenol red containing 5% charcoal stripped serum after culturing in the same media for 4 days. Cells were treated, washed and harvested in cold phosphate buffered saline containing 1 mM dithiothreitol, 1 mM phenylmethylsulfonyl fluoride, 5 μg/ml leupeptin, 5 μg/ml pepstatin A and 5 μg/ml aprotinin, and solubilized in buffer containing 1% Triton X-100, 0.15 M NaCl, 0.5 mM EDTA, 1% sodium deoxycholate, 0.1% SDS, 50 mM Tris-HCl, pH 7.4 and protease inhibitors listed above. […] Protein concentration was determined by BioRad assay using bovine serum albumin as standard.
Another assay relates to MAGE-11 protein. Description: MAGE-11 immunoblot in Ishikawa cells. The conditions noted are these: 10 nM E2, 48 h. Type of assay: cell-based, human.
The subject of assay [5] is PR-B. The assay is described as follows: PR immunoblot in Ishikawa cells. Type of assay: cell-based, human. The following applies: 10 nM E2 for 48 h.
Experimental: as §2

Experimental for MAGE-11 protein: as §2

Take `C[C@]12CCC(=O)C[C@@H]1CC[C@@H]1[C@@H]2CC[C@]2(C)[C@@H](O)CC[C@@H]12` [DHT, dihydrotestosterone]: the “change in MAGE-11 mRNA levels” value in the assay on MAGE-11 mRNA [1] and in the assay on MAGE-11 mRNA [2] (ECC-1 cells) was “unchanged” each time. In the assay on Flag-MAGE-11, the “effect on MAGE-11 protein levels” value is “declined”.

On to `C[C@]12CC[C@@H]3c4ccc(O)cc4CC[C@H]3[C@@H]1CC[C@@H]2O` [E2, 17β-estradiol], for which the “effect on cyclic-AMP induction of MAGE-11 mRNA” value in the assay with MAGE-11 mRNA [3] was “not inhibited”. The “effect on cAMP induced increase in MAGE-11 mRNA” value with MAGE-11 mRNA [1] (10 nM E2 with dibutyryl-cAMP, 48 h, lesser extent than in ECC-1 cells) is “inhibited”; in the assay with MAGE-11 mRNA [2] (ECC-1 cells, 10 nM E2 with 2 mM dibutyryl-cAMP, greater extent than in Ishikawa cells), “inhibited”. Further, the “increase in AR mRNA levels” value with AR mRNA (10 nM E2) was about 3 fold. Further, in the assay on AR mRNA (dose response, 48 h), the “E2 concentration required to increase AR mRNA” value is listed as 1 nM. Moreover, the “effect on PR-B levels” value in the assay on PR-B [4] and in the assay on PR-B [5] was “increased” each time. Further, the “effect on ~67 kDa MAGE-11 protein level” value in the assay with MAGE-11 protein is on record as “declined”. Further, the “time required for inhibitory effect on MAGE-11 mRNA” value in the assay on MAGE-11 mRNA [2] (ECC-1 cells) is “more than 6 h”. Further, the “effect on increase in MAGE-11 mRNA levels during culture” value is “partial inhibition” with MAGE-11 mRNA [2] (ECC-1 cells, 0.01 nM E2, dose response, 48 h) and “blocked” in the assay with MAGE-11 mRNA [2] (ECC-1 cells, 10 nM E2, 72 h culture in phenol red-free, charcoal stripped serum medium). The “concentration required to partially inhibit MAGE-11 expression relative to that required to increase AR expression (fold less)” value with MAGE-11 mRNA [2] (endometrial cell lines) was about 100 fold.

As for `C[C@]12CC[C@@H]3c4ccc(O)cc4C[C@@H](CCCCCCCCC[S+]([O-])CCCC(F)(F)C(F)(F)F)[C@H]3[C@@H]1CC[C@@H]2O` (stereo partly shown) [ICI-182,780], the “effect on E2 induced increase in AR mRNA” value with AR mRNA (1 μM ICI-182,780) was “blocked”. In addition, the “effect on MAGE-11 mRNA levels” value with MAGE-11 mRNA [2] (ECC-1 cells, 1 μM ICI-182,780 in the absence and presence of E2 (0.1 nM), 48 h) is reported as “increased”.

In the case of `C=C[C@@]1(C)CC(=O)[C@]2(O)[C@@]3(C)[C@@H](O)CCC(C)(C)[C@@H]3[C@H](O)[C@H](OC(C)=O)[C@@]2(C)O1` [forskolin], the “increase in MAGE-11 mRNA levels” value in the assay on MAGE-11 mRNA [1] (50 μM) is listed as about 4 fold; in the assay on MAGE-11 mRNA [2] (ECC-1 cells, 50 μM), about 4 fold.

For `CC(=O)[C@H]1CC[C@H]2[C@@H]3CCC4=CC(=O)CC[C@]4(C)[C@H]3CC[C@]12C` [progesterone], the “change in MAGE-11 mRNA levels” value with MAGE-11 mRNA [1] and with MAGE-11 mRNA [2] (ECC-1 cells) was “unchanged” each time. Moreover, the “MAGE-11 mRNA with progesterone after E2 pretreatment” value in the assay on MAGE-11 mRNA [1] (pretreatment with 10 nM E2 for 48 h (data not shown)) is “no increase”; in the assay on MAGE-11 mRNA [2] (ECC-1 cells, pretreatment with 10 nM E2 for 48 h (data not shown)) it was “no increase”.

Turning to “EGF: EGF growth factor, used at 10 ng/ml”, the “change in MAGE-11 mRNA levels” value with MAGE-11 mRNA [1] and in the assay on MAGE-11 mRNA [2] (ECC-1 cells) was “unchanged” in each case.
